Data from patent US5716982A, “Retinoids and methods of use of same” (priority 1995, dated 1998).
Where two headings read alike, the source gives them in different places.

Columns and labels:
[1] = test system: Ornithine decarboxylase (ODC); test: Croton oil induced ornithine decarboxylase (ODC) activity in mouse epidermis; type: in vivo; details: single dose pretreatment, FIG. 1 (x±SD, n=3)
Description: ICR mice (6-8 weeks old) were pretreated with a single dose of coumarin retinoid. On the third day, the animals received a topical application of 0.2 ml of 1% croton oil in acetone. All animals were sacrificed five hours after the croton oil treatment and the epidermis was separated by a brief heat treatment at 52° C. for 30 seconds and minced in a blender. The cell suspension and broth were separated by a centrifugation at 30,000×g for 30 seconds and the supernatant was obtained. Ornithine decarboxylase (ODC) enzyme activity was determined by measuring the release of CO2 from L-(^14 C)-ornithine and expressed as nmole CO2 /30 min/mg protein and the results for coumarin retinoid I-10 and I-6 are shown in FIG. 1. […] ODC activity is a critical parameter for monitoring cancer chemoprevention or promotion.

[2] = test system: chondrosarcoma in rats; test: Growth of transplanted chondrosarcoma in rats; type: in vivo, rat
Description: Transplantable chondrosarcomas obtained from Dr. Trown, Hoffman--La Roche Institute of Molecular Biology and Wistar rats obtained from the Breeding Center of Experimental Animals, Chinese Academy of Medical Sciences were used. According to the routine transplantation protocol as described in Cancer Treatment Reports 60(11):1647-1653 (1976) where the small pieces of chondrosarcoma tumor were implanted subcutaneously in the right inguinal region of rats using a trocar. Tumor-bearing rats were randomized to a control group and a treated group. Each group consisted of ten rats. The compound was given orally for 12 days at the indicated dosage. Sixty days after transplantation, the rats were sacrificed and the tumor weight was determined. The inhibition rate was calculated according to the following formula: [formula]

[3] = test system: Human promyelocytic leukemia HL-60 cells; test: Cell differentiation of HL-60 cells, nitroblue tetrazolium (NBT) reduction; type: cell-based; details: Homo sapiens
Description: Human promyelocytic leukemia HL-60 cells were cultured in RPMI-1640 medium supplemented by 10% heat-inactivated calf serum and 100 U/ml of penicillin plus 100 μg/ml of streptomycin. The flasks containing cells and medium were incubated in an incubator with 5% CO2 at 37° C. Log phase cells were seeded into the medium at a concentration of 1.2×10^5to 1.4×10^5 cells per ml and cultured in flasks containing 5 ml of medium. Each group consisted of three flasks. Different concentrations of coumarin-retinoids were added. At intervals following the addition of coumarin-retinoids to the cultures, a small portion of cells was removed and live cells were counted under a light microscope using a dye-exclusionmethod with trypan blue. Cell differentiation was judged in terms of morphology and nitroblue tetrazolium (NBT) reduction.
For a determination of NBT reducing activity, a portion of the coumarin-retinoid-treated cells was removed at intervals following treatment and centrifuged. After centrifugation, 0.5 ml of 0.1% NBT (containing 100 ng TPA) was added to each tube. The contents of the test tubes were then incubated for 1 hour at 37° C. Cell smears were prepared from the cell sediment and stained using the Wright-Giemsa technique. For each smear prepared, 200 cells were isolated for examination under a light microscope with an oil immersion lens. Cells stained with blue-black granules were considered NBT-positive cells. The 50% differentiation or effective concentration (ED50 or EC50) is shown in terms of molar (M) concentration of the […] tested.
(§1) The protocols of Examples 14 and 21 were used, for the NBT and MTT assays, respectively.

[4] = test system: bone abnormalities in mouse fetus; test: Bone abnormalities in mouse fetus (anti-teratogenicity); type: in vivo
Description: (§2) Female mice were examined by vaginal smear the morning after being caged with male mice, and if sperm or a vaginal plug was discovered, then the mice were determined to be pregnant. The retinoids were administered at the dosage indicated starting on the seventh day of pregnancy and continued once a day for the next ten days. On the 20th day after the female mice were determined to be pregnant, they were sacrificed by cervical dislocation. Both sides of the uterus were checked and the number of living embryos, dead embryos, and absorbed embryos were counted. The living embryos were further examined for bone abnormalities.
After the embryos became transparent, they were dissected and their skeletons were checked by observation under a microscope.

[5] = test system: fetus absorption in mice; test: Fetus absorption in mice (anti-teratogenicity); type: in vivo, mouse
Description: as §2

[6] = test system: HCT-8 cell line; test: MTT assay in HCT-8 cells; type: cell-based; details: Homo sapiens, HCT-8, 120 h; read-out: MTT ED50
[7] = test system: A2780 cell line; test: MTT assay in A2780 cells; type: cell-based; details: Homo sapiens, A2780, 120 h; read-out: MTT ED50
Description: (§3) Human cancer cell lines (KB, A2780, MCF-7, HL-60, A549) were used. For a monolayer culture, 0.5 ml of trypsin solution ([…]) was added to the flasks for digestion. Microtiter plates (96 well) were used for the cell culture and 200 μl of cell suspension (1200 tumor cells) were placed in each well and incubated at 37° C. for 24 hours. Following the addition of the test compound, the control and treated flasks were placed in a CO2 incubator for 5 day culture. For the MTT assay, 200 μl of MTT solution (5 mg in 10 ml of phosphate buffer) plus the medium were added and incubated for another 4 hours. Following incubation, the supernatant was discarded and 200 μl of DMSO was added to each well. With a mild agitation the OD values were determined by the MR 700 Elisa at 570 nm (reference wavelength was 450 nm). The ED50 of the compound and tumor cell survival rate [formula] as percent inhibition were calculated.
as §1

[8] = test system: KB cell line; test: MTT assay in KB cells; type: cell-based; details: Homo sapiens, 120 h, read-out: MTT ED50
Description: as §3, §1

[9] = test system: BEL 7402 cell line; test: MTT assay in BEL 7402 cells; type: cell-based; details: Homo sapiens, Bel-7402, 120 h; Bel7402; read-out: MTT ED50
[10] = Preuss-Ueberschar et al. 1984; cited from earlier work
[11] = test system: Salmonella typhimurium strain TA102; test: Anti-mutagenicity (Ames), MMS-induced his+ revertants, TA102; type: cell-based; details: MMS 0.5 μl/plate; for his+ -revertants/per plate, TA102: n = 3
Description: (§4) An antimutagenicity assay was conducted according to the method developed by Ames et al. using Salmonella typhimurium strains TA 102 and TA 100 and mammalian microsomal enzymes. Beta-naphthoflavone and phenobarbital-induced rat liver supernatant (9000×g S-9 fraction) was used as the enzyme source for metabolic activation. The night before the experiment, certified bacterial solution (assessed for its biological characteristics and donated by Professor Ames) was inoculated into petri dishes. The petri dishes were then incubated for 15 hours at 37° C. From each petri dish, 0.1 ml of the bacterial solution was removed and added to sterile test tubes. To these test tubes, 0.1 ml of different concentrations of coumarin retinoids and 0.5 ml of either S-9 mixed solution or phosphate buffer were then added. The final solution for each test tube was incubated in a water bath at 37° C. for 20 minutes before adding 2 ml of agar solution. After thorough mixing, the solution was transferred into petri dishes and incubated once again at 37° C. for 48 hours. After incubation, the number of colonies in each petri dish were counted. The revertant numbers of the bacteria in control and treated groups were compared and the inhibition rate was calculated.

[12] = test system: Salmonella typhimurium strain TA100; test: Anti-mutagenicity (Ames), MMS-induced his+ revertants, TA100; type: cell-based; details: MMS 0.5 μl/plate; for his+ -revertants/per plate, TA100: n = 3
Description: as §4

[13] = test system: lipid peroxidation of rat liver microsome; test: Fe/Cys induced lipid peroxidation of rat liver microsome (anti-oxidation); type: biochemical; details: n = 3
Description: Lipid peroxidation was induced by adding 1 mM FeSO4 and 10 mM cysteine to the microsome fraction of rat liver with the incubations being carried out at 37° C. for 30 minutes in a reaction mixture containing 10 mM phosphate buffer (pH 7.4). The reaction was terminated by the addition of 0.3 ml of 20% trichloroacetic acid solution. Thiobarbituric acid was then added and the mixture was boiled for 10 minutes. After cooling the test tubes under running tap water, the optical density at 532 nm was measured. Lipid peroxidation in both the treated groups and the control group was expressed in nmol MDA/mg protein. The percentage inhibition indicates the anti-oxidation properties of the coumarin retinoids tested.

[14] = test system: HL-60 cells; test: MTT assay in HL-60 cells; type: cell-based, human; details: Homo sapiens, MTT
Description: as §3, §1

[15] = test system: melanoma cell growth; details: Jing et al. 1992; cited from earlier work
[16] = NBT reduction, 50% differentiation, HL-60 (Table 2), read-out: EC50
[17] = HL-60 (Table 16), read-out: NBT

SMILES: CC(=O)c1cc2c(OC(=O)/C=C(C)/C=C/C=C(C)/C=C/C3=C(C)CCCC3(C)C)cc(OC(=O)/C=C(C)/C=C/C=C(C)/C=C/C3=C(C)CCCC3(C)C)cc2oc1=O [Compound I-10]
- inhibition of croton oil induced ODC activity [1]: significantly inhibited the ODC activity induced by croton oil
- Animals, final ([2]; 5 mg/kg p.o., 12 days, 10 animals initial): 10
- Inhibition rate (%) ([2]; 10 mg/kg p.o.): 9.8%
- Animals, final ([2]; 10 mg/kg p.o., 12 days, 10 animals initial): 9
- Animals, final ([2]; 20 mg/kg p.o., 12 days, 10 animals initial): 9
- Inhibition rate (%) ([2]; 20 mg/kg p.o., P < 0.05): 42.2%
- EC50 [3, 16]: 0.013 µM
- Delayed Calcification, Occipital delay/fetus ([4]; 20 mg/kg): 22/66
- Delayed Calcification, Sternum delay/fetus ([4]; 20 mg/kg): 14/66
- Delayed Calcification, Occipital delay/fetus ([4]; 40 mg/kg): 15/81
- Delayed Calcification, Sternum delay/fetus ([4]; 40 mg/kg): 21/81

SMILES: CC1=C(/C=C/C(C)=C/C=C/C(C)=C/C(=O)Nc2ncnc3c2ncn3C(=O)/C=C(C)/C=C/C=C(C)/C=C/C2=C(C)CCCC2(C)C)C(C)(C)CCC1 [II-A]
- Inhibition rate (%) ([2]; 2 mg/kg ×10): 49.5%
- Tumor Weight ([2]; 2 mg/kg ×10): 5.4 grams
- Animals, final ([2]; 2 mg/kg ×10, 10 animals initial): 9
- Animals, final ([2]; 5 mg/kg ×10, 10 animals initial): 9
- Cleft Palate (%) ([4]; 20 mg/kg): 0%
- Delayed Calcification (%), Occipital ([4]; 20 mg/kg): 7.6%
- Delayed Calcification (%), Sternum ([4]; 20 mg/kg): 9.0%
- Cleft Palate (%) ([4]; 40 mg/kg): 0%
- Delayed Calcification (%), Occipital ([4]; 40 mg/kg): 7.2%
- Delayed Calcification (%), Sternum ([4]; 40 mg/kg): 7.2%
- Implanted Number ([5]; 20 mg/kg, 12 pregnant mice): 141
- Absorbed Number ([5]; 20 mg/kg, 12 pregnant mice, 141 implanted): 10
- Implanted Number ([5]; 40 mg/kg, 15 pregnant mice): 181
- Absorbed Number ([5]; 40 mg/kg, 15 pregnant mice, 181 implanted): 17

SMILES: CC1=C(/C=C/C(C)=C/C=C/C(C)=C/C(=O)Nc2nc3c(ncn3C(=O)/C=C(C)/C=C/C=C(C)/C=C/C3=C(C)CCCC3(C)C)c(=O)[nH]2)C(C)(C)CCC1 [II-D]
- IC50 [6]: 4 µM
- IC50 [7]: > 10 µM
- IC50 [8]: > 10 µM
- IC50 [9]: 5 µM
- EC50 [3, 17]: > 10 µM

SMILES: CC1=C(/C=C/C(C)=C/C=C/C(C)=C/C(=O)n2cnc3c(=O)[nH]c(N)nc32)C(C)(C)CCC1 [II-F]
- IC50 [6]: > 10 µM
- IC50 [7]: > 10 µM
- IC50 [8]: > 10 µM
- IC50 [9]: > 10 µM
- EC50 [3, 17]: > 10 µM

SMILES: O=c1ccc2ccccc2o1 [coumarin]
- teratogenicity [10]: not teratogenic

SMILES: CC(=O)c1cc2cc(Cl)c(OC(=O)/C=C(C)/C=C/C=C(C)/C=C/C3=C(C)CCCC3(C)C)cc2oc1=O [Compound I-6]
- inhibition of croton oil induced ODC activity [1]: significantly inhibited the ODC activity induced by croton oil
- Inhibition (%), TA102 ([11]; 0.1 mg/plate): 13.8%
- his+ -revertants/per plate, TA102 ([11]; 0.1 mg/plate): 1560 ± 40.0 revertants/per plate
- Inhibition (%), TA102 ([11]; 0.5 mg/plate): 26.6%
- his+ -revertants/per plate, TA102 ([11]; 0.5 mg/plate): 1375 ± 241.5 revertants/per plate
- Inhibition (%), TA100 ([12]; 0.1 mg/plate): 12.8%
- his+ -revertants/per plate, TA100 ([12]; 0.1 mg/plate): 971.3 ± 102.7 revertants/per plate
- Inhibition (%), TA100 ([12]; 0.5 mg/plate): 15.5%
- his+ -revertants/per plate, TA100 ([12]; 0.5 mg/plate): 947.3 ± 60.3 revertants/per plate
- EC50 [3, 16]: 0.6 µM
- Lipid Peroxidation ([13]; 2 μM): 2.16 ± 0.18 μM MDA/mg protein
- Lipid Peroxidation ([13]; 20 μM): 2.13 ± 0.19 μM MDA/mg protein

SMILES: CC(=O)c1cc2ccc(OC(=O)/C=C(C)/C=C/C=C(C)/C=C/C3=C(C)CCCC3(C)C)c(C(=O)O)c2oc1=O [Compound I-5]
- IC50 ([14]; 120 h, HL-60 (Table 12), read-out: ED50 (the source's name)): 8.5 µM
- inhibition at 10 µM ([14]; 10^-5 M, HL-60): 51.6%
- inhibition at 1 µM ([14]; 10^-6 M, HL-60): 34 ± 7.1%
- inhibition at 0.1 µM ([14]; 10^-7 M, HL-60): 11.5 ± 4.2%
- EC50 [3, 16]: 0.28 µM
- Lipid Peroxidation ([13]; 1 μM): 2.19 ± 0.13 μM MDA/mg protein

SMILES: O=c1c(-c2ccc(O)cc2)coc2cc(O)ccc12 [diadzein]
- melanoma cell growth [15]: inhibits melanoma cell growth
